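Each compound was tested at five concentrations against cells in 96-well plates for 48 hours. GI50: concentration for 50% inhibition of growth. The concentration for full growth arrest is given as TGI.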
What was measured:
Assay in all cases: growth of human tumour cells (NCI), 48 h
SK-MEL-5 melanoma = tested on: SK-MEL-5 melanoma
T-47D breast = tested on: T-47D breast
HCT-116 colon = tested on: HCT-116 colon
A549 NSCLC = tested on: A549 NSCLC
IGROV1 ovarian = tested on: IGROV1 ovarian
RPMI-8226 leukemia = tested on: RPMI-8226 leukemia
MALME-3M melanoma = tested on: MALME-3M melanoma
SNB-19 CNS = tested on: SNB-19 CNS
CAKI-1 renal = tested on: CAKI-1 renal
K-562 leukemia = tested on: K-562 leukemia

| SMILES | GI50 (SK-MEL-5 melanoma) [nM] | TGI (SK-MEL-5 melanoma) [µM] | GI50 (T-47D breast) [µM] | TGI (T-47D breast) [µM] | GI50 (HCT-116 colon) [µM] | TGI (HCT-116 colon) [µM] | GI50 (A549 NSCLC) [µM] | TGI (A549 NSCLC) [µM] | GI50 (IGROV1 ovarian) [µM] | TGI (IGROV1 ovarian) [µM] | GI50 (RPMI-8226 leukemia) [µM] | TGI (RPMI-8226 leukemia) [µM] | GI50 (MALME-3M melanoma) [µM] | TGI (MALME-3M melanoma) [µM] | GI50 (SNB-19 CNS) [µM] | TGI (SNB-19 CNS) [µM] | GI50 (CAKI-1 renal) [µM] | TGI (CAKI-1 renal) [µM] | GI50 (K-562 leukemia) [µM] | TGI (K-562 leukemia) [µM] |
| --- | --- | --- | --- | --- | --- | --- | --- | --- | --- | --- | --- | --- | --- | --- | --- | --- | --- | --- | --- | --- |
| CCn1cc(C(=O)O)c(=O)c2cc(F)c(N3CCN(S(=O)(=O)c4ccc(Cl)cc4Cl)CC3)cc21 | 1870 | 3.93 | 3.11 | 9.71 | 3.56 | > 100 | 2.89 | > 100 | 2.33 | 5.08 | 2.55 | 7.59 | 1.94 | 4.17 | 3.07 | 20.6 | 2.01 | 4.8 | 4 | > 100 |
| COc1cc(-c2nc(-c3ccccc3)c(-c3ccccc3)[nH]2)cc(OC)c1O | 14200 | 27.6 | 13.5 | 38.7 | 14.4 | 27.7 | 19 | 57 | 26.9 | 61.2 | 24.1 | 83 | 18.8 | 40.3 | 20.8 | 52.9 | 20.5 | 55.2 | 21 | > 100 |
| O=c1c(I)c[nH]cc1I | > 100000 | > 100 | > 100 | > 100 | > 100 | > 100 | > 100 | > 100 | 98.3 | > 100 | > 100 | > 100 | > 100 | > 100 | > 100 | > 100 | > 100 | > 100 | > 100 | > 100 |
| COc1ccc2nc3ccccc3c(NCCNCCO)c2c1 | 1050 | 2.35 | 0.673 | 6.71 | 0.352 | 4.84 | 0.673 | 7.81 | 0.54 | 3.06 | 0.406 | 2.73 | 0.382 | 1.88 | 0.661 | 6.9 | 1.22 | 6.5 | 0.356 | 4.33 |
| C=C1C(=O)OC2CC(C)C(/C=C/C(C)=O)=CCC12 (stereo unspecified) |  | > 100 |  | > 100 |  | > 100 |  | > 100 |  | > 100 |  | > 100 |  | 89.4 |  | > 100 |  | > 100 |  | > 100 |
| C=CCC(N[C@@H](CO)c1ccccc1)c1ccc2ccccc2n1 (stereo partly specified) |  |  | 61.1 | > 100 | > 100 | > 100 | > 100 | > 100 | 29.9 | > 100 | 30.2 | > 100 | 88.6 | > 100 |  |  | > 100 | > 100 | 36.2 | > 100 |
| N=C(N)c1ccc2oc3ccc(C(=N)N)cc3c(=O)c2c1 |  | > 100 |  | > 100 |  | > 100 |  | > 100 |  | > 100 |  | > 100 |  | > 100 |  | > 100 |  | > 100 |  | > 100 |
